Data published in US6414147B1, “2-amino-9-alkylpurines: GABA brain receptor ligands” (Neurogen Corporation, priority 1998, dated 2002).

| melting point | SMILES |
| --- | --- |
| 136 to 139 °C | CCCCn1cnc2c(OCc3ccncc3)nc(Nc3ccccc3)nc21 [compound 17, 2-(Phenylamino)-6-(pyrid-4-ylmethoxy)-9-butyl-9H-purine] |
| 106 to 108 °C | C=C(C)COc1nc(Nc2cnc3ccccc3c2)nc2c1ncn2CCCC [compound 91, 2-[(Quinolin-3-yl)amino]-6-(2-methyl-2-propen-1-oxy)-9-butyl-9H-purine] |
| 88 to 90 °C | CCCCn1cnc2c(OCCC(C)C)nc(Nc3ccc(F)cc3)nc21 [compound 32, 2-[(4-Fluorophenyl)amino]-6-(3-methylbut-1-oxy)-9-butyl-9H-purine] |
| 206 to 207 °C | CCCCn1cnc2c(OCc3cccnc3)nc(Nc3ccccc3)nc21 [compound 16, 2-(Phenylamino)-6-(pyrid-3-ylmethoxy)-9-butyl-9H-purine] |
| 171 to 172 °C | CCCCn1cnc2c(Oc3ccccc3)nc(Nc3ccc(F)cc3)nc21 [compound 33, 2-[(4-Fluorophenyl)amino]-6-phenoxy-9-butyl-9H-purine] |
| 167 to 169 °C | CCCCn1cnc2c(OCC)nc(Nc3ccc(OCC)nc3)nc21 [compound 71, 2-[(2-Ethoxypyrid-5-yl)amino]-6-ethoxy-9-butyl-9H-purine] |
| 77 to 80 °C | CCCCn1cnc2c(OCC(=O)OCC)nc(Nc3ccc(OCC)nc3)nc21 [compound 82, 2-[(2-Ethoxypyrid-5-yl)amino]-6-carboethoxymethoxy-9-butyl-9H-purine] |
| 158 to 160 °C | CCCCCCn1cnc2c(OC)nc(Nc3ccccc3)nc21 [compound 23, 2-(Phenylamino)-6-methoxy-9-hexyl-9H-purine] |
| 91 to 93 °C | CCCCn1cnc2c(OC)nc(Nc3ccccc3C)nc21 [compound 46, 2-[(2-Methylphenyl)amino]-6-methoxy-9-butyl-9H-purine] |
| 167 to 169 °C | COc1nc(Nc2ccccc2)nc2c1ncn2CCC(C)C [compound 24, 2-(Phenylamino)-6-methoxy-9-(3-methylbutyl)-9H-purine] |
| 77 to 79 °C | CCCCn1cnc2c(OCC(C)C)nc(Nc3ccccc3)nc21 [compound 6, 2-(Phenylamino)-6-(2-methylprop-1-oxy)-9-butyl-9H-purine] |
| 185 to 187 °C | CCCCn1cnc2c(OC)nc(Nc3ccc(F)cc3)nc21 [compound 27, 2-[(4-Fluorophenyl)amino]-6-methoxy-9-butyl-9H-purine] |
| 129 to 131 °C | CCCCn1cnc2c(Oc3ccccc3)nc(Nc3ccc(OC)cc3OC)nc21 [compound 50, 2-[(2,4-Dimethoxyphenyl)amino]-6-phenoxy-9-butyl-9H-purine] |
| 101 to 103 °C | CCCCn1cnc2c(OC)nc(Nc3ccccc3OC)nc21 [compound 44, 2-[(2-Methoxyphenyl)amino]-6-methoxy-9-butyl-9H-purine] |
| 96 to 98 °C | CCCCn1cnc2c(OCC(C)C)nc(Nc3ccc(OCC)nc3)nc21 [compound 83, 2-[(2-Ethoxypyrid-5-yl)amino]-6-(2-methylprop-1-oxy)-9-butyl-9H-purine] |
| 161 to 163 °C | CCCCn1cnc2c(OCCOC)nc(Nc3cnc4ccccc4c3)nc21 [compound 88, 2-[(Quinolin-3-yl)amino]-6-(2-methoxyethoxy)-9-butyl-9H-purine] |
| 147 to 149 °C | CCCCn1cnc2c(OCC3CCCO3)nc(Nc3ccc(OC)nc3)nc21 (stereo not shown) [compound 62, 2-[(2-Methoxypyrid-5-yl)amino]-6-tetrahydrofurfuryloxy-9-butyl-9H-purine] |
| 148 to 150 °C | CCCCn1cnc2c(OCC3CC3)nc(Nc3ccc(OC)nc3)nc21 [compound 68, 2-[(2-Methoxypyrid-5-yl)amino]-6-cyclopropylmethoxy-9-butyl-9H-purine] |
| 123 to 125 °C | CCCCn1cnc2c(OCCOC)nc(Nc3ccc(OCC)nc3)nc21 [compound 72, 2-[(2-Ethoxypyrid-5-yl)amino]-6-(2-methoxyethoxy)-9-butyl-9H-purine] |
| 124 to 126 °C | CCCCn1cnc2c(OCC3CC3)nc(Nc3ccccc3)nc21 [compound 9, 2-(Phenylamino)-6-(cyclopropylmethoxy)-9-butyl-9H-purine] |
| 163 to 164 °C | CCCCn1cnc2c(OCCF)nc(Nc3ccc(OC)nc3)nc21 [compound 58, 2-[(2-Methoxypyrid-5-yl)amino]-6-(2-fluoroethoxy)-9-butyl-9H-purine] |
| 159 to 160 °C | CCCCn1cnc2c(OCC)nc(Nc3ccccc3)nc21 [compound 3, 2-(Phenylamino)-6-ethoxy-9-butyl-9H-purine] |
| 215 to 220 °C | CCCCn1cnc2c(OCCC)nc(Nc3cnc4ccccc4c3)nc21 [compound 87, 2-[(Quinolin-3-yl)amino]-6-propoxy-9-butyl-9H-purine] |
| 88 to 89 °C | CCCCn1cnc2c(OCCOC)nc(Nc3ccc(OC)cc3OC)nc21 [compound 49, 2-[(2,4-Dimethoxyphenyl)amino]-6-(2-methoxyethoxy)-9-butyl-9H-purine] |
| 90 to 94 °C | COc1nc(Nc2ccccc2)nc2c1ncn2CCCO [compound 21, 2-(Phenylamino)-6-methoxy-9-(3-hydroxypropyl)-9H-purine] |

| melting point | SMILES |
| --- | --- |
| 163 to 164 °C | CCCCn1cnc2c(OCc3ccccc3)nc(Nc3ccccc3)nc21 [compound 14, 2-(Phenylamino)-6-benzyloxy-9-butyl-9H-purine] |
| 155 to 157 °C | CCCCn1cnc2c(Oc3ccccc3F)nc(Nc3ccc(F)cc3)nc21 [compound 34, 2-[(4-Fluorophenyl)amino]-6-(2-fluorophenoxy)-9-butyl-9H-purine] |
| 158 to 160 °C | CCCCn1cnc2c(OC)nc(Nc3ccc(OC)cc3)nc21 [compound 39, 2-[(4-Methoxyphenyl)amino]-6-methoxy-9-butyl-9H-purine] |
| 96 to 98 °C | CCCCn1cnc2c(OC(C)COC)nc(Nc3ccccc3)nc21 (stereo not shown) [compound 13, 2-(Phenylamino)-6-(1-methyl-2-methoxyethoxy)-9-butyl-9H-purine] |
| 166 to 168 °C | CCCCn1cnc2c(OCCO)nc(Nc3ccc(OCC)nc3)nc21 [compound 84, 2-[(2-Ethoxypyrid-5-yl)amino]-6-(2-hydroxyethoxy)-9-butyl-9H-purine] |
| 172 to 174 °C | CCCCn1cnc2c(OC)nc(Nc3ccccc3)nc21 [compound 2, 2-(Phenylamino)-6-methoxy-9-butyl-9H-purine] |
| 165 to 167 °C | COc1nc(Nc2ccccc2)nc2c1ncn2Cc1ccccc1 [compound 25, 2-(Phenylamino)-6-methoxy-9-benzyl-9H-purine] |
| 115 to 116 °C | CCCCn1cnc2c(OCCC)nc(Nc3ccccc3)nc21 [compound 4, 2-(Phenylamino)-6-propoxy-9-butyl-9H-purine] |
| 185 to 187 °C | CCCCn1cnc2c(Oc3cccc(OC)c3)nc(Nc3ccc(F)cc3)nc21 [compound 35, 2-[(4-Fluorophenyl)amino]-6-(3-methoxyphenoxy)-9-butyl-9H-purine] |
| 173 to 175 °C | CCCCn1cnc2c(SCC)nc(Nc3ccccc3)nc21 [compound 8, 2-(Phenylamino)-6-(ethylthio)-9-butyl-9H-purine] |
| 174 to 176 °C | C=CCOc1nc(Nc2ccc(OC)nc2)nc2c1ncn2CCCC [compound 61, 2-[(2-Methoxypyrid-5-yl)amino]-6-(2-propen-1-oxy)-9-butyl-9H-purine] |
| 178 to 179 °C | CCCCn1cnc2c(OC)nc(Nc3ccc(OC)c(F)c3)nc21 [compound 53, 2-[(3-Fluoro-4-methoxyphenyl)amino]-6-methoxy-9-butyl-9H-purine] |
| 170 to 172 °C | CCCCn1cnc2c(OCc3cccs3)nc(Nc3ccccc3)nc21 [compound 18, 2-(Phenylamino)-6-(thien-2-ylmethoxy)-9-butyl-9H-purine] |
| 104 to 106 °C | CCCCn1cnc2c(OC)nc(Nc3ccc(OC)cc3OC)nc21 [compound 47, 2-[(2,4-Dimethoxyphenyl)amino]-6-methoxy-9-butyl-9H-purine] |
| 156 to 157 °C | CCCCn1cnc2c(OCCF)nc(Nc3ccc(OCC)nc3)nc21 [compound 74, 2-[(2-Ethoxypyrid-5-yl)amino]-6-(2-fluoroethoxy)-9-butyl-9H-purine] |
| 135 to 137 °C | CCCCn1cnc2c(OCCOCC)nc(Nc3ccccc3)nc21 [compound 11, 2-(Phenylamino)-6-(2-ethoxyethoxy)-9-butyl-9H-purine] |
| 160 to 162 °C | CCCCn1cnc2c(OC)nc(Nc3ccc(OC)c(OC)c3)nc21 [compound 52, 2-[(3,4-Dimethoxyphenyl)amino]-6-methoxy-9-butyl-9H-purine] |
| 150 to 152 °C | CCCCn1cnc2c(OCC)nc(Nc3ccc4ncsc4c3)nc21 [compound 96, 2-[(Benzothiazol-6-yl)amino]-6-ethoxy-9-butyl-9H-purine] |
| 86 to 88 °C | CCCCn1cnc2c(OCC)nc(Nc3ccc(OC)cc3OC)nc21 [compound 48, 2-[(2,4-Dimethoxyphenyl)amino]-6-ethoxy-9-butyl-9H-purine] |
| 102 to 104 °C | CCCCn1cnc2c(OCC(F)(F)F)nc(Nc3ccccc3)nc21 [compound 7, 2-(Phenylamino)-6-(2,2,2-trifluoroethoxy)-9-butyl-9H-purine] |
| 116 to 118 °C | CCCCn1cnc2c(OC(C)C)nc(Nc3ccccc3)nc21 [compound 5, 2-(Phenylamino)-6-isopropoxy-9-butyl-9H-purine] |
| 158 to 160 °C | C=CCOc1nc(Nc2ccc(OCC)nc2)nc2c1ncn2CCCC [compound 73, 2-[(2-Ethoxypyrid-5-yl)amino]-6-(2-propen-1-oxy)-9-butyl-9H-purine] |
| 138 °C | CCCCn1cnc2c(OCC)nc(Nc3ccc(OC(C)C)cc3F)nc21.CS(=O)(=O)O [compound 54, 2-[(2-Fluoro-4-isopropoxyphenyl)amino]-6-ethoxy-9-butyl-9H-purine methane sulfonate] |
| 107 to 109 °C | C=CCSc1nc(Nc2ccc(OC)nc2)nc2c1ncn2CCCC [compound 69, 2-[(2-Methoxypyrid-5-yl)amino]-6-allylthio-9-butyl-9H-purine] |
